In ChEMBL document CHEMBL5543109, “Novel β-Hairpin Antimicrobial Peptide Containing the β-Turn Sequence of -NG- and the Tryptophan Zippers Facilitate Self-Assembly into Nanofibers, Exhibiting Excellent Antimicrobial Performance” (J Med Chem, 2024) one finds MIC data, which are given here for eight molecules.

What is called MIC is the lowest concentration found to suppress growth. A lower MIC goes with a more susceptible organism.

Holding throughout (assay type): functional
Assay [1] concerns Staphylococcus aureus. Put plainly: Antibacterial activity against methicillin resistant Staphylococcus aureus 75 incubated for 18 hrs by broth microdilution method. Background: Broth dilution looks for growth in wells or tubes with falling amounts of substance.
Assay [2] concerns Staphylococcus aureus. Put plainly: Antibacterial activity against kanamycin resistant Staphylococcus aureus incubated for 18 hrs by broth microdilution method.
For assay [3], the system named is Staphylococcus aureus. The assay is described as follows: Antibacterial activity against methicillin resistant Staphylococcus aureus 113 incubated for 18 hrs by broth microdilution method.
In assay [4] the test system is Staphylococcus aureus. The assay is described as follows: Antibacterial activity against Staphylococcus aureus S125 incubated for 18 hrs by broth microdilution method.
Assay [5] deals with Staphylococcus aureus. Put plainly: Antibacterial activity against methicillin resistant Staphylococcus aureus incubated for 18 hrs by broth microdilution method.
In assay [6] the test system is Staphylococcus aureus. The assay is described as follows: Antibacterial activity against rifampicin resistant Staphylococcus aureus incubated for 18 hrs by broth microdilution method.
Assay [7] has as its system Staphylococcus aureus. Put plainly: Antibacterial activity against Staphylococcus aureus incubated for 18 hrs by broth microdilution method.
Assay [8] relates to Escherichia coli. The assay is described as follows: Antibacterial activity against Escherichia coli incubated for 18 hrs by broth microdilution method.
Assay [9] has as its system Staphylococcus aureus. The assay is described as follows: Antibacterial activity against Staphylococcus aureus S794 incubated for 18 hrs by broth microdilution method.
Assay [10] deals with Escherichia coli. The assay is described as follows: Antibacterial activity against rifampicin resistant Escherichia coli incubated for 18 hrs by broth microdilution method.
For assay [11], the system named is Escherichia coli. Put plainly: Antibacterial activity against kanamycin resistant Escherichia coli incubated for 18 hrs by broth microdilution method.
Another assay has as its system Klebsiella pneumoniae. Put plainly: Antibacterial activity against Klebsiella pneumoniae ATCC 700603 incubated for 18 hrs by broth microdilution method.
Assay [12] deals with Staphylococcus epidermidis. The assay is described as follows: Antibacterial activity against Staphylococcus epidermidis ATCC 12228 incubated for 18 hrs by broth microdilution method.
The test system of the next assay is Bacillus subtilis. The assay is described as follows: Antibacterial activity against Bacillus subtilis ATCC 23857 incubated for 18 hrs by broth microdilution method.
The subject of the next assay is Pseudomonas aeruginosa. Put plainly: Antibacterial activity against Pseudomonas aeruginosa ATCC 27853 incubated for 18 hrs by broth microdilution method.
Assay [13] deals with Escherichia coli. Put plainly: Antibacterial activity against Escherichia coli ATCC 25922 incubated for 18 hrs by broth microdilution method.
Assay [14] relates to Staphylococcus aureus. Put plainly: Antibacterial activity against Staphylococcus aureus ATCC 25923 incubated for 18 hrs by broth microdilution method.

Values after ≈ are worked out from the molar mass of the structure shown. Residues, ends and D or L forms follow the SMILES beside them.

For the molecule `C[C@@H](O)[C@H]1C(=O)N2C(C(=O)O)=C(S[C@@H]3CN[C@H](C(=O)N(C)C)C3)[C@H](C)[C@H]12` [MEROPENEM], the MIC against Staphylococcus aureus [1] came out at 128 µM (≈ 49.1 µg/mL); against Staphylococcus aureus [2], 0.5 µM (≈ 0.192 µg/mL); in the assay with Staphylococcus aureus [3], 0.5 µM (≈ 0.192 µg/mL); in the assay on Staphylococcus aureus [4] it was 0.5 µM (≈ 0.192 µg/mL); in the assay on Staphylococcus aureus [5], 32 µM (≈ 12.3 µg/mL); with Staphylococcus aureus [6] it was 0.5 µM (≈ 0.192 µg/mL). Further, the MIC against Staphylococcus aureus [7], against Escherichia coli [8], against Staphylococcus aureus [9], in the assay on Escherichia coli [10] and in the assay with Escherichia coli [11] was 0.5 µM (≈ 0.192 µg/mL) in each case.

For the molecule `CC[C@H](C)[C@H](N)C1=N[C@H](C(=O)N[C@@H](CC(C)C)C(=O)N[C@H](CCC(=O)O)C(=O)N[C@H](C(=O)N[C@H]2CCCCNC(=O)[C@H](CC(N)=O)NC(=O)[C@@H](CC(=O)O)NC(=O)[C@H](Cc3cnc[nH]3)NC(=O)[C@@H](Cc3ccccc3)NC(=O)[C@H]([C@@H](C)CC)NC(=O)[C@@H](CCCN)NC2=O)[C@@H](C)CC)CS1` [BACITRACIN] (HELM PEPTIDE1{[CC[C@H](C)[C@H](N)C1=N[C@H](C(=O)[*:2])CS1].L.[dE].I.K.[NCCC[C@@H](N[*:1])C(=O)[*:2]].I.[dF].H.[dD].N}$PEPTIDE1,PEPTIDE1,5:R3-11:R2$$$V2.0), the MIC is 0.5 µM (≈ 0.711 µg/mL) against Staphylococcus aureus [1]; 16 µM (≈ 22.8 µg/mL) in the assay with Staphylococcus aureus [2]; 16 µM (≈ 22.8 µg/mL) in the assay on Staphylococcus aureus [3]; 8 µM (≈ 11.4 µg/mL) against Staphylococcus aureus [4]; over 128 µM against Klebsiella pneumoniae; 0.5 µM (≈ 0.711 µg/mL) with Staphylococcus aureus [5]. Besides, the MIC with Staphylococcus aureus [6] is 256 µM (≈ 364 µg/mL); in assay [12], 16 µM (≈ 22.8 µg/mL); in the assay with Staphylococcus aureus [7], 32 µM (≈ 45.5 µg/mL); with Bacillus subtilis, over 128 µM; in the assay on Escherichia coli [8], 256 µM (≈ 364 µg/mL); against Pseudomonas aeruginosa it was over 128 µM. The MIC was over 128 µM in the assay with Escherichia coli [13]; 256 µM (≈ 364 µg/mL) against Staphylococcus aureus [9]; 256 µM (≈ 364 µg/mL) with Escherichia coli [10]; 256 µM (≈ 364 µg/mL) in the assay with Escherichia coli [11]; 32 µM (≈ 45.5 µg/mL) in the assay on Staphylococcus aureus [14].

Take `NC[C@H]1O[C@H](O[C@H]2[C@H](O)[C@@H](O[C@H]3O[C@H](CO)[C@@H](O)[C@H](N)[C@H]3O)[C@H](N)C[C@@H]2N)[C@H](O)[C@@H](O)[C@@H]1O` [KANAMYCIN]: the MIC against Staphylococcus aureus [1] came to 256 µM (≈ 124 µg/mL); against Staphylococcus aureus [2] it was 256 µM (≈ 124 µg/mL); against Staphylococcus aureus [3] it was 256 µM (≈ 124 µg/mL); against Staphylococcus aureus [4], 256 µM (≈ 124 µg/mL); in the assay on Klebsiella pneumoniae, 64 µM (≈ 31 µg/mL); in the assay on Staphylococcus aureus [5] it was 256 µM (≈ 124 µg/mL). The MIC against Staphylococcus aureus [6] is 4 µM (≈ 1.94 µg/mL); in assay [12] it was over 128 µM; in the assay with Staphylococcus aureus [7], 0.5 µM (≈ 0.242 µg/mL); against Bacillus subtilis it was under 1 µM; in the assay with Escherichia coli [8], 4 µM (≈ 1.94 µg/mL); with Pseudomonas aeruginosa it was over 128 µM. Besides, the MIC in the assay on Escherichia coli [13] was 8 µM (≈ 3.88 µg/mL); against Staphylococcus aureus [9] it was 16 µM (≈ 7.75 µg/mL); against Escherichia coli [10], 4 µM (≈ 1.94 µg/mL); against Escherichia coli [11], 256 µM (≈ 124 µg/mL); in the assay on Staphylococcus aureus [14], under 1 µM.

For `CO[C@H]1/C=C/O[C@@]2(C)Oc3c(C)c(O)c4c(O)c(c(/C=N/N5CCN(C)CC5)c(O)c4c3C2=O)NC(=O)/C(C)=C\C=C\[C@H](C)[C@H](O)[C@@H](C)[C@@H](O)[C@@H](C)[C@H](OC(C)=O)[C@@H]1C` [RIFAMPIN], the MIC in the assay on Staphylococcus aureus [1] was found to be 256 µM (≈ 211 µg/mL); in the assay on Staphylococcus aureus [2] it was 4 µM (≈ 3.29 µg/mL); against Staphylococcus aureus [3], 0.5 µM (≈ 0.411 µg/mL); against Staphylococcus aureus [4] it was 0.5 µM (≈ 0.411 µg/mL); against Klebsiella pneumoniae it was 64 µM (≈ 52.7 µg/mL); against Staphylococcus aureus [5] it was 256 µM (≈ 211 µg/mL). The MIC with Staphylococcus aureus [6] was 64 µM (≈ 52.7 µg/mL); in assay [12], under 1 µM; in the assay with Staphylococcus aureus [7], 0.5 µM (≈ 0.411 µg/mL); in the assay with Bacillus subtilis it was under 1 µM; against Escherichia coli [8], 16 µM (≈ 13.2 µg/mL); in the assay on Pseudomonas aeruginosa, 32 µM (≈ 26.3 µg/mL). Moreover, the minimal inhibitory concentration (MIC) was 16 µM (≈ 13.2 µg/mL) in the assay on Escherichia coli [13]; 32 µM (≈ 26.3 µg/mL) against Staphylococcus aureus [9]; 256 µM (≈ 211 µg/mL) against Escherichia coli [10]; 32 µM (≈ 26.3 µg/mL) against Escherichia coli [11]; under 1 µM against Staphylococcus aureus [14].

Consider `C[C@@H](O)[C@H]1C(=O)N2C(C(=O)O)=C(SCCNC=N)C[C@H]12` [IMIPENEM ANHYDROUS], for which the MIC in the assay with Staphylococcus aureus [1] was 256 µM (≈ 76.6 µg/mL); against Staphylococcus aureus [2], 0.5 µM (≈ 0.15 µg/mL); against Staphylococcus aureus [3] it was 0.5 µM (≈ 0.15 µg/mL); against Staphylococcus aureus [4], 0.5 µM (≈ 0.15 µg/mL); in the assay on Staphylococcus aureus [5] it was 32 µM (≈ 9.58 µg/mL); against Staphylococcus aureus [6], 0.5 µM (≈ 0.15 µg/mL). The MIC in the assay on Staphylococcus aureus [7] came out at 0.5 µM (≈ 0.15 µg/mL); with Escherichia coli [8] it was 0.5 µM (≈ 0.15 µg/mL); against Staphylococcus aureus [9], 0.5 µM (≈ 0.15 µg/mL); with Escherichia coli [10] it was 0.5 µM (≈ 0.15 µg/mL); with Escherichia coli [11], 8 µM (≈ 2.39 µg/mL).

With GENTAMICIN, the MIC came out at 32 µM against Staphylococcus aureus [1]; 0.5 µM against Staphylococcus aureus [2]; 0.5 µM against Staphylococcus aureus [3]; 8 µM against Staphylococcus aureus [4]; 16 µM against Staphylococcus aureus [5]; 0.5 µM with Staphylococcus aureus [6]. The MIC turned out to be 0.5 µM in the assay on Staphylococcus aureus [7]; 0.5 µM with Escherichia coli [8]; 32 µM in the assay with Staphylococcus aureus [9]; 0.5 µM against Escherichia coli [10]; 32 µM with Escherichia coli [11].

Take `CN[C@@H]1[C@H](O[C@H]2[C@H](O[C@H]3[C@H](O)[C@@H](O)[C@H](N=C(N)N)[C@@H](O)[C@@H]3N=C(N)N)O[C@@H](C)[C@]2(O)C=O)O[C@@H](CO)[C@H](O)[C@H]1O` [STREPTOMYCIN]: the MIC against Staphylococcus aureus [1] is 32 µM (≈ 18.6 µg/mL); against Staphylococcus aureus [2], 4 µM (≈ 2.33 µg/mL); in the assay with Staphylococcus aureus [3] it was 64 µM (≈ 37.2 µg/mL); against Staphylococcus aureus [4], 32 µM (≈ 18.6 µg/mL); in the assay on Staphylococcus aureus [5] it was 32 µM (≈ 18.6 µg/mL); with Staphylococcus aureus [6], 2 µM (≈ 1.16 µg/mL). The MIC worked out at 0.5 µM (≈ 0.291 µg/mL) against Staphylococcus aureus [7]; 4 µM (≈ 2.33 µg/mL) against Escherichia coli [8]; 128 µM (≈ 74.4 µg/mL) against Staphylococcus aureus [9]; 2 µM (≈ 1.16 µg/mL) against Escherichia coli [10]; 64 µM (≈ 37.2 µg/mL) against Escherichia coli [11].

In the case of `CO/N=C(\C(=O)N[C@@H]1C(=O)N2C(C(=O)O)=C(COC(C)=O)CS[C@H]12)c1csc(N)n1` [CEFOTAXIME], the MIC with Staphylococcus aureus [1] was determined as 256 µM (≈ 117 µg/mL); against Staphylococcus aureus [2], 0.5 µM (≈ 0.228 µg/mL); in the assay on Staphylococcus aureus [3] it was 32 µM (≈ 14.6 µg/mL); against Staphylococcus aureus [4], 8 µM (≈ 3.64 µg/mL); against Klebsiella pneumoniae, 4 µM (≈ 1.82 µg/mL); against Staphylococcus aureus [5] it was 256 µM (≈ 117 µg/mL). Besides, the MIC is 0.5 µM (≈ 0.228 µg/mL) with Staphylococcus aureus [6]; under 1 µM in assay [12]; 2 µM (≈ 0.911 µg/mL) in the assay with Staphylococcus aureus [7]; 64 µM (≈ 29.2 µg/mL) against Bacillus subtilis; 0.5 µM (≈ 0.228 µg/mL) against Escherichia coli [8]; 8 µM (≈ 3.64 µg/mL) with Pseudomonas aeruginosa. In addition, the minimal inhibitory concentration (MIC) against Escherichia coli [13] is under 1 µM; in the assay on Staphylococcus aureus [9], 256 µM (≈ 117 µg/mL); with Escherichia coli [10], 0.5 µM (≈ 0.228 µg/mL); against Escherichia coli [11] it was 64 µM (≈ 29.2 µg/mL); in the assay on Staphylococcus aureus [14] it was 2 µM (≈ 0.911 µg/mL).
